Laboratory results reported in PubChem BioAssay AID1963860 (Molecular Pharmacology Branch, DTP, NCI, 2024).

System: CN0375-F725-PDC KRAS spheroid viability
Assay: Anticancer human tumor CN0375-F725-PDC patient-derived colon carcinoma cell line growth inhibition [KRAS2]
Details: spheroids with HUVEC and MSC; for IC50: curve of first compound; for viability, T/C: stronger effect = lower value
Outline: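 KRAS-mutant tumor cells were grown as spheroids with HUVEC endothelial cells and human MSCs as stroma. Targeted agents were tested alone and with KRAS pathway inhibitors. Doses started at or near clinical Cmax, or 10 microM, descending half-log.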

[1] = second compound 0.1 µM, first compound 0.01 µM
[2] = second compound 0.1 µM, first compound 0.0316 µM
[3] = second compound 0.1 µM, first compound 0.1 µM
[4] = second compound 0.1 µM, first compound 0.316 µM
[5] = second compound 0.1 µM, first compound 1 µM
[6] = second compound 0.1 µM, first compound 3.16 µM
[7] = second compound 0.316 µM, first compound 0.01 µM
[8] = second compound 0.316 µM, first compound 0.0316 µM
[9] = second compound 0.316 µM, first compound 0.1 µM
[10] = second compound 0.316 µM, first compound 0.316 µM
[11] = second compound 0.316 µM, first compound 1 µM
[12] = second compound 0.316 µM, first compound 3.16 µM
[13] = second compound 1 µM, first compound 0.01 µM
[14] = second compound 1 µM, first compound 0.0316 µM
[15] = second compound 1 µM, first compound 0.1 µM
[16] = second compound 1 µM, first compound 0.316 µM
[17] = second compound 1 µM, first compound 1 µM
[18] = second compound 1 µM, first compound 3.16 µM
[19] = second compound 3.16 µM, first compound 0.01 µM
[20] = second compound 3.16 µM, first compound 0.0316 µM
[21] = second compound 3.16 µM, first compound 0.1 µM
[22] = second compound 3.16 µM, first compound 0.316 µM
[23] = second compound 3.16 µM, first compound 1 µM
[24] = second compound 3.16 µM, first compound 3.16 µM
[25] = second compound 10 µM, first compound 0.01 µM
[26] = second compound 10 µM, first compound 0.0316 µM
[27] = second compound 10 µM, first compound 0.1 µM
[28] = second compound 10 µM, first compound 0.316 µM
[29] = second compound 10 µM, first compound 1 µM
[30] = second compound 10 µM, first compound 3.16 µM
[31] = second compound 0.1 µM, first compound 10 µM
[32] = second compound 0.316 µM, first compound 10 µM
[33] = second compound 1 µM, first compound 10 µM
[34] = second compound 3.16 µM, first compound 10 µM
[35] = second compound 10 µM, first compound 10 µM
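Further: spheroids exposed to agents for 7 days.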

SMILES: CC(=O)OC12COC1CC(O)C1(C)C(=O)C(O)C3=C(C)C(OC(=O)C(O)C(NC(=O)OC(C)(C)C)c4ccccc4)CC(O)(C(OC(=O)c4ccccc4)C21)C3(C)C (stereo not given) + COc1cc2nc(C)nc(NC(C)c3cc(N)cc(C(F)(F)F)c3)c2cc1OC1CCOC1
- IC50 (second compound 0.1 µM): > 3160 nM
- IC50 (second compound 0.316 µM): > 3160 nM
- IC50 (second compound 1 µM): > 3160 nM
- IC50 (second compound 3.16 µM): > 3160 nM
- IC50 (second compound 10 µM): 1080 nM
- viability, T/C [1]: 99.6%
- viability, T/C [2]: 96.2%
- viability, T/C [3]: 87.8%
- viability, T/C [4]: 84.4%
- viability, T/C [5]: 80.5%
- viability, T/C [6]: 72.7%
- viability, T/C [7]: 91%
- viability, T/C [8]: 91.8%
- viability, T/C [9]: 83.6%
- viability, T/C [10]: 80%
- viability, T/C [11]: 74.9%
- viability, T/C [12]: 69.5%
- viability, T/C [13]: 89.8%
- viability, T/C [14]: 101%
- viability, T/C [15]: 87.8%
- viability, T/C [16]: 82.7%
- viability, T/C [17]: 80.4%
- viability, T/C [18]: 71.4%
- viability, T/C [19]: 77.7%
- viability, T/C [20]: 70.6%
- viability, T/C [21]: 75.1%
- viability, T/C [22]: 63.4%
- viability, T/C [23]: 71.1%
- viability, T/C [24]: 63.6%
- viability, T/C [25]: 68.3%
- viability, T/C [26]: 65.6%
- viability, T/C [27]: 64.6%
- viability, T/C [28]: 52.6%
- viability, T/C [29]: 54.9%
- viability, T/C [30]: 39.9%

SMILES: CCNC(=O)CC1N=C(c2ccc(Cl)cc2)c2cc(OC)ccc2-n2c(C)nnc21 (stereo not given) + CC1OCC2(CCN(c3cnc(Sc4ccnc(N)c4Cl)c(N)n3)CC2)C1N
- IC50 (second compound 0.1 µM): 7510 nM
- IC50 (second compound 0.316 µM): 4630 nM
- IC50 (second compound 1 µM): 3690 nM
- IC50 (second compound 3.16 µM): 2610 nM
- IC50 (second compound 10 µM): 1460 nM
- viability, T/C [2]: 92.8%
- viability, T/C [3]: 88.3%
- viability, T/C [4]: 79.4%
- viability, T/C [5]: 72.6%
- viability, T/C [6]: 60.8%
- viability, T/C [31]: 46.1%
- viability, T/C [8]: 88%
- viability, T/C [9]: 78.9%
- viability, T/C [10]: 68.5%
- viability, T/C [11]: 69.7%
- viability, T/C [12]: 58.8%
- viability, T/C [32]: 37.3%
- viability, T/C [14]: 85.2%
- viability, T/C [15]: 78.2%
- viability, T/C [16]: 70.5%
- viability, T/C [17]: 66.5%
- viability, T/C [18]: 51.6%
- viability, T/C [33]: 37%
- viability, T/C [20]: 79.4%
- viability, T/C [21]: 73.6%
- viability, T/C [22]: 62.2%
- viability, T/C [23]: 61.9%
- viability, T/C [24]: 48.3%
- viability, T/C [34]: 36.8%
- viability, T/C [26]: 72.3%
- viability, T/C [27]: 73.8%
- viability, T/C [28]: 60.7%
- viability, T/C [29]: 53%
- viability, T/C [30]: 45%
- viability, T/C [35]: 36.9%

SMILES: COC(=O)c1ccc2c(C(=Nc3ccc(N(C)C(=O)CN4CCN(C)CC4)cc3)c3ccccc3)c(O)[nH]c2c1 + C=CC(=O)N1CCN(c2nc(=O)n(-c3c(C)ccnc3C(C)C)c3nc(-c4c(O)cccc4F)c(F)cc23)C(C)C1
- IC50 (second compound 0.1 µM): 3690 nM
- IC50 (second compound 0.316 µM): 2350 nM
- IC50 (second compound 1 µM): 1780 nM
- IC50 (second compound 3.16 µM): 1860 nM
- IC50 (second compound 10 µM): 1540 nM
- viability, T/C [2]: 98.2%
- viability, T/C [3]: 100%
- viability, T/C [4]: 95.3%
- viability, T/C [5]: 94.8%
- viability, T/C [6]: 57.7%
- viability, T/C [31]: 0.25%
- viability, T/C [8]: 104%
- viability, T/C [9]: 103%
- viability, T/C [10]: 93.8%
- viability, T/C [11]: 96.1%
- viability, T/C [12]: 34.2%
- viability, T/C [32]: 0.2%
- viability, T/C [14]: 106%
- viability, T/C [15]: 108%
- viability, T/C [16]: 96.3%
- viability, T/C [17]: 88.1%
- viability, T/C [18]: 12.5%
- viability, T/C [33]: 0.2%
- viability, T/C [20]: 104%
- viability, T/C [21]: 106%
- viability, T/C [22]: 102%
- viability, T/C [23]: 90%
- viability, T/C [24]: 15.7%
- viability, T/C [34]: 0.22%
- viability, T/C [26]: 97.9%
- viability, T/C [27]: 98.2%
- viability, T/C [28]: 87.1%
- viability, T/C [29]: 73%
- viability, T/C [30]: 12.3%
- viability, T/C [35]: 0.26%

SMILES: CC1OCC2(CCN(c3cnc(Sc4ccnc(N)c4Cl)c(N)n3)CC2)C1N (stereo not given) + CNCc1ccccc1-c1csc(C(C)Nc2nc(C)nc3cc(OC)c(OC)cc23)c1
- IC50 (second compound 0.1 µM): > 10000 nM
- IC50 (second compound 0.316 µM): > 10000 nM
- IC50 (second compound 1 µM): 150 nM
- IC50 (second compound 3.16 µM): < 31.6 nM
- IC50 (second compound 10 µM): < 31.6 nM
- viability, T/C [2]: 95.7%
- viability, T/C [3]: 86.1%
- viability, T/C [4]: 75.8%
- viability, T/C [5]: 78.5%
- viability, T/C [6]: 76.3%
- viability, T/C [31]: 61.4%
- viability, T/C [8]: 94.2%
- viability, T/C [9]: 83.7%
- viability, T/C [10]: 73.7%
- viability, T/C [11]: 76.2%
- viability, T/C [12]: 67.2%
- viability, T/C [32]: 50.5%
- viability, T/C [14]: 55.3%
- viability, T/C [15]: 53.7%
- viability, T/C [16]: 43.7%
- viability, T/C [17]: 39%
- viability, T/C [18]: 27.7%
- viability, T/C [33]: 11.5%
- viability, T/C [20]: 0.54%
- viability, T/C [21]: 0.29%
- viability, T/C [22]: 0.49%
- viability, T/C [23]: 0.25%
- viability, T/C [24]: 0.31%
- viability, T/C [34]: 0.37%
- viability, T/C [26]: 0.19%
- viability, T/C [27]: 0.41%
- viability, T/C [28]: 0.27%
- viability, T/C [29]: 0.2%
- viability, T/C [30]: 0.53%
- viability, T/C [35]: 0.17%

SMILES: CC(C)n1nc(-c2ccc3oc(N)nc3c2)c2c(N)ncnc21 + CC1OCC2(CCN(c3cnc(Sc4ccnc(N)c4Cl)c(N)n3)CC2)C1N
- IC50 (second compound 0.1 µM): 58.1 nM
- IC50 (second compound 0.316 µM): 42.2 nM
- IC50 (second compound 1 µM): 33.1 nM
- IC50 (second compound 3.16 µM): 26.3 nM
- IC50 (second compound 10 µM): 7.76 nM
- viability, T/C (second compound 0.1 µM, first compound 0.000316 µM): 91.6%
- viability, T/C (second compound 0.1 µM, first compound 0.001 µM): 89.6%
- viability, T/C (second compound 0.1 µM, first compound 0.00316 µM): 73.9%
- viability, T/C [1]: 68.6%
- viability, T/C [2]: 54.2%
- viability, T/C [3]: 45.7%
- viability, T/C (second compound 0.316 µM, first compound 0.000316 µM): 84.5%
- viability, T/C (second compound 0.316 µM, first compound 0.001 µM): 84.9%
- viability, T/C (second compound 0.316 µM, first compound 0.00316 µM): 73.1%
- viability, T/C [7]: 60.7%
- viability, T/C [8]: 54.6%
- viability, T/C [9]: 43.2%
- viability, T/C (second compound 1 µM, first compound 0.000316 µM): 82.5%
- viability, T/C (second compound 1 µM, first compound 0.001 µM): 81.7%
- viability, T/C (second compound 1 µM, first compound 0.00316 µM): 68.6%
- viability, T/C [13]: 61.5%
- viability, T/C [14]: 51%
- viability, T/C [15]: 40.5%
- viability, T/C (second compound 3.16 µM, first compound 0.000316 µM): 74.6%
- viability, T/C (second compound 3.16 µM, first compound 0.001 µM): 74.3%
- viability, T/C (second compound 3.16 µM, first compound 0.00316 µM): 67.5%
- viability, T/C [19]: 57.3%
- viability, T/C [20]: 46.9%
- viability, T/C [21]: 37.9%
- viability, T/C (second compound 10 µM, first compound 0.000316 µM): 63.8%
- viability, T/C (second compound 10 µM, first compound 0.001 µM): 65%
- viability, T/C (second compound 10 µM, first compound 0.00316 µM): 56.4%
- viability, T/C [25]: 47.5%
- viability, T/C [26]: 39.9%
- viability, T/C [27]: 33.8%
